Experimental data from the supplement of paper PMC10784567.
± gives the standard deviation of the averaged measurements.

Compound: C=C1C[C@H]2C=Nc3cc(OCCCCCOc4cc5c(cc4OC)C(=O)N4CC(=C)C[C@H]4C=N5)c(OC)cc3C(=O)N2C1 [SG2057]
Assay: absolute IC50 (cell viability, CellTiter-Glo); higher = less potent
Settings: treatment time: 3 days
Description: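 Large cancer cell line panel screens in 384-well plates. Cells were treated for 3 days with a 9-point dose titration of the free PBD dimer SG2057; viability was read with CellTiter-Glo. Absolute IC50 came from a four-parameter Hill fit normalised to the median of vehicle (DMSO) wells. Several independent screens (projects) per cell line are averaged; values in µM, lowest-dose floor about 1.524e-5 µM.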

Test System	absolute IC50 [nM]
MCF 10A PTEN -/- (Sigma)	2.54
COR-L279	0.082
NCI-N87	0.403 ± 0.11
NCI-H661	1.78 ± 3.4
AU565	0.835 ± 0.35
PLC/PRF/5	8.3
HCA-7	2.01 ± 1.7
LN-229	2.6 ± 1.4
NCI-H226	1.27 ± 2.5
IGR-39	0.0981 ± 0.02
1624-16997 (Tumor C)	1.55
FTC-133	0.122
OCI-M1	0.227 ± 0.13
KP-N-YN	0.0159
IM-95m	3.43
NCI-H1666	0.888 ± 0.43
KP4	0.251 ± 0.14
NCI-H1944	1.06 ± 0.29
4498-16820 Mel-BR1 X1	0.911
COLO 201	0.782
537 MEL	1.23 ± 0.94
JC	0.463
HCC1010	0.134 ± 0.12
C32	0.31 ± 0.098
NCI-H2373	0.217 ± 0.18

Test System	absolute IC50 [nM]
Ca Ski	0.254
NCI-H2171	0.742 ± 1.3
RPMI 2650	0.539 ± 0.27
KLE	12.1 ± 8.9
SNU-216	1.57 ± 2.9
NCI-H2073	28.9
BOKU	0.258
SW 626	3.67
HEC-6	0.536
MCF 10A	3.78 ± 2.7
HT-1080	0.569 ± 0.14
SNG-M	0.285 ± 0.16
SNU-484	0.327 ± 0.11
NCI-H2452	2.95 ± 3
UACC-62	0.77 ± 0.36
KM-12	3.65
SNU-620	2.3 ± 3.1
PE/CA-PJ15	0.216
59M	1.47
KMS-26	0.0823 ± 0.024
KMS-27	0.164 ± 0.0027
ME-180	0.155
NCI-H1651	0.443
HCC364	2.86 ± 4.4
1624-17095 (Tumor A)	1.31

Test System	absolute IC50 [nM]
OAW42	1.38 ± 1.6
HCC850	0.178
KYSE-410	0.579
LoVo	1.52 ± 0.43
Hs 38.T	1.36 ± 1.7
U266B1	2.64 ± 2.4
T.T	1.93
TC-71	< 0.0152
PAN 02 X1	0.839
SCLC-21H	0.788
C-33 A	0.0527
Hs 695T	0.547 ± 0.21
HEL	0.067 ± 0.0071
TK-10	2.7 ± 2.1
NCI-H441	0.535
1321N1	0.0321
HMVII	0.434 ± 0.73
GOTOP3	0.217
JJN-3	0.816 ± 1.7
Capan-2	4.33 ± 0.82
SUM 159PT	0.681
NCI-H28	0.89
RERF-LC-OK	0.729 ± 1
1624-17082 (Tumor A)	0.887
KYSE-140	0.496

Test System	absolute IC50 [nM]
MCF 10A AKT2 -/- (Sigma)	2.14
MPC-11	0.229
SK-HEP-1	0.205
LXFL529	2.72
GP5d	1.93 ± 1.5
HCC1493	0.412 ± 0.72
NCI-H820	1.48
GB-1	1.12
COLO 792	3.47
NCI-H358	0.959 ± 0.56
HEC-251	1.28
PC-9	5.48
HUP-T3	0.645 ± 0.72
MHH-ES-1	0.159
DAN-G	0.694 ± 0.32
SW 948	3.39 ± 3.9
MG-63	0.284
Li-7	4.51
NCI-H1770	7.47
CL-34	1.69 ± 3.5
NCI-H1975	2
CA46	0.354 ± 0.53
CAL-120	2.01 ± 2.9
Clone M-3 Cloudman S91 melanoma	0.202
C170	2.97 ± 1.1

Test System	absolute IC50 [nM]
SJCRH30 (RC13)	0.187
KE-97	0.193 ± 0.11
COV413A	2.34
RMUG-S	1.92 ± 0.051
G96	0.588
OAW28	5.25
EBC-1	0.876
KYSE-520	1.01
KYSE-150	0.194
SNU-475	2.56 ± 3.8
HCC1482	0.173
HCC515	0.134 ± 0.17
NCI-H1838	2.32 ± 2.8
NCI-H716	6.9 ± 3.7
OUMS-23	1.71 ± 0.89
COLO 818	3.37 ± 4.1
Calu-3	1.55 ± 0.058
HCC2935	5.29 ± 3.4
JHH-4	0.555 ± 0.54
KARPAS-1106P	0.158 ± 0.045
COLO 320DM	20.2
